# Results published in patent publication US8846570B2, “Herbicidal compositions comprising 4-amino-3-chloro-5-fluoro-6-(4-chloro-2-fluoro-3-methoxyphenyl)pyridine-2-carboxylic acid or a derivative thereof and microtubule inhibiting herbicides” (Dow AgroSciences LLC, priority 2012, dated 2014).
# Assays:
# [1] = tested on: Ipomoea hederacea (L.) Jacq. (IPOHE); assay: Pre-emergence soil-applied, greenhouse: visual weed control; format: in vivo; conditions: for Visual Weed Control (%) - 33 DAA IPOHE Obs: soil-applied pre-emergence
# Excerpt: Seeds or nutlets of the desired test plant species were planted in a soil matrix prepared by mixing a loam soil (e.g., 32 percent silt, 23 percent clay, and 45 percent sand, with a pH of about 6.5 and an organic matter content of about 1.9 percent) and calcareous grit in an 80 to 20 ratio. The soil matrix was contained in plastic pots with a volume of 1 quart and a surface area of 83.6 square centimeters (cm^2).
# Forms of compound A were applied on an acid equivalent basis.
# (§1) For treatments comprised of formulated compounds, measured amounts of compounds were placed individually in 25 mL glass vials and diluted in a volume of 1.25% (v/v) Agri-Dex® crop oil concentrate (COC) to obtain 12× stock solutions. […] Application solutions were prepared by adding an appropriate amount of each stock solution (e.g., 1 mL) and diluted to the appropriate final concentrations with the addition of 10 mL of an aqueous mixture of 1.25% (v/v) COC so that the final spray solutions contained 1.25% (v/v) COC.
# For treatments comprised of formulated and technical compounds, weighed amounts of the technical materials were placed individually in 25 mL glass vials and dissolved in a volume of 97:3 (v/v) acetone/DMSO to obtain 12× stock solutions, and measured amounts of the formulated compounds were placed individually in 25 mL glass vials and diluted in a volume of 1.5% (v/v) COC or water to obtain 12× stock solutions. […] Application solutions were prepared by adding an appropriate amount of each stock solution (e.g., 1 mL) and diluted to the appropriate final concentrations with the addition of an appropriate amount of an aqueous mixture of 1.5% (v/v) COC so that the final spray solutions contained 1.25% (v/v) COC. As required, additional water and/or 97:3 (v/v) acetone/DMSO was added to individual application solutions so that the final acetone and DMSO concentrations of the application solutions being compared were 8.1% and 0.25%, respectively.
# All stock solutions and applications solutions were visually inspected for compound compatibility prior to application. Spray solutions were applied to the soil with an overhead Mandel track sprayer equipped with a 8002E nozzles calibrated to deliver 187 L/ha over an application area of 0.503 m^2 at a spray height of 18 inches (46 cm) above average pot height. Control pots were sprayed in the same manner with the solvent blank.
# The treated and control pots were placed in a greenhouse and top watered as needed. […] The pots were maintained in a greenhouse with an approximate 14 hr photoperiod which was maintained at about 29° C. during the day and 26° C. during the night. Nutrients (Peters® Excel 15-5-15 5-Ca 2-Mg) were applied in the irrigation solution as needed and water was added on a regular basis. Supplemental lighting was provided with overhead metal halide 1000-Watt lamps as necessary. After approximately 4 weeks, the condition of the test plants as compared with that of the untreated plants was determined visually and scored on a scale of 0 to 100 percent where 0 corresponds to no injury or growth inhibition and 100 corresponds to complete kill.
# (§2) Colby's equation was used to determine the herbicidal effects expected from the mixtures (Colby, S. R. 1967. Calculation of the synergistic and antagonistic response of herbicide combinations. Weeds 15:20-22.).
# (§3) The following equation was used to calculate the expected activity of mixtures containing two active ingredients, A and B: Expected=A+B−(A×B/100)
# [2] = tested on: Leptochloa chinensis (L.) Nees (LEFCH); assay: Postemergence foliar-applied, direct seeded rice, greenhouse: visual weed control; format: in vivo; conditions: 19 DAA
# Excerpt: Seeds or nutlets of the desired test plant species were planted in a soil matrix prepared by mixing a loam or sandy loam soil (e.g., 28.6 percent silt, 18.8 percent clay, and 52.6 percent sand, with a pH of about 5.8 and an organic matter content of about 1.8 percent) and calcareous grit in an 80 to 20 ratio. The soil matrix was contained in plastic pots with a volume of 1 quart and a surface area of 83.6 cm^2. When required to ensure good germination and healthy plants, a fungicide treatment and/or other chemical or physical treatment was applied. The plants were grown for 8-22 days in a greenhouse with an approximate 14 h photoperiod which was maintained at about 29° C. during the day and 26° C. during the night. Nutrients (Peters Excel® 15-5-15 5-Ca 2-Mg and iron chelate) were applied in the irrigation solution as needed and water was added on a regular basis. Supplemental lighting was provided with overhead metal halide 1000-Watt lamps as necessary. The plants were employed for testing when they reached the first through fourth true leaf stage.
# Treatments consisted of the acid or esters of 4-amino-3-chloro-5-fluoro-6-(4-chloro-2-fluoro-3-methoxy-phenyl)pyridine-2-carboxylic acid (Compound A), each formulated as an SC (suspension concentrate), and various herbicidal components alone and in combination. Forms of compound A were applied on an acid equivalent basis.
# Treatment requirements were calculated based upon the rates being tested, the concentration of active ingredient or acid equivalent in the formulation, and a 12 mL application volume at a rate of 187 L/ha.
# as §1, with “oil concentrated” for “oil concentrate (COC)”, “(v/v) crop oil concentrate” for “(v/v) COC”, “contained 1.25+/−0.05%” for “contained 1.25%”, “(v/v) crop oil concentrate.” for “(v/v) COC.”
# As required, additional water and/or 97:3 v/v acetone/DMSO was added to individual application solutions so that the final acetone and DMSO concentrations of the application solutions being compared were 8.1% and 0.25%, respectively.
# All stock solutions and applications solutions were visually inspected for compound compatibility prior to application. Spray solutions were applied to the plant material with an overhead Mandel track sprayer equipped with a 8002E nozzles calibrated to deliver 187 L/ha over an application area of 0.503 m^2 at a spray height of 18 to 20 inches (46 to 50 cm) above average plant canopy height. Control plants were sprayed in the same manner with the solvent blank.
# The treated plants and control plants were placed in a greenhouse as described above and watered by sub-irrigation to prevent wash-off of the test compounds. After approximately 3 weeks, the condition of the test plants as compared with that of the untreated plants was determined visually and scored on a scale of 0 to 100 percent where 0 corresponds to no injury or growth inhibition and 100 corresponds to complete kill.
# as §2, §3
smiles,measurement,setting,value
"COc1c(Cl)ccc(-c2nc(C(=O)OCc3ccccc3)c(Cl)c(N)c2F)c1F [Compound A Benzyl Ester, benzyl ester of 4-amino-3-chloro-5-fluoro-6-(4-chloro-2-fluoro-3-methoxy-phenyl)pyridine-2-carboxylic acid]",Visual Weed Control (%) Obs,"[1]; 27 DAA, 16 g ae/ha",20%
same,Visual Weed Control (%) Obs,"[1]; 27 DAA, 32 g ae/ha",40%
same,Visual Weed Control (%) Obs,"[1]; 33 DAA, 16 g ae/ha",0%
same,Visual Weed Control (%) Obs,"[1]; 33 DAA, 32 g ae/ha",5%
same,Visual Weed Control (%) - 33 DAA IPOHE Obs,"[1]; Compound A Benzyl Ester 16 g ae/ha alone, 33 DAA",0%
same,Visual Weed Control (%) - 33 DAA IPOHE Obs,"[1]; Compound A Benzyl Ester 32 g ae/ha alone, 33 DAA",5%
same,Visual Weed Control (%) Obs,[2]; 4.38 g ae/ha,0%
same,Visual Weed Control (%) Obs,[2]; 8.75 g ae/ha,25%
same,Visual Weed Control (%) Obs,[2]; 17.5 g ae/ha,30%
"CSC(=O)c1c(C(F)F)nc(C(F)(F)F)c(C(=O)SC)c1CC(C)C [Dithiopyr, S,S′-dimethyl-2-(difluoromethyl)-4-(2-methylpropyl)-6-(trifluoromethyl)-3,5-pyridinedicarbothioate]",Visual Weed Control (%) Obs,"[1]; 27 DAA, 140 g ai/ha",3%
same,Visual Weed Control (%) Obs,"[1]; 27 DAA, 280 g ai/ha",20%
"CCC(CC)Nc1c([N+](=O)[O-])cc(C)c(C)c1[N+](=O)[O-] [Pendimethalin, N-(1-ethylpropyl)-3,4-dimethyl-2,6-dinitrobenzenamine, reference compound]",Visual Weed Control (%) Obs,[2]; 140 g ai/ha,0%
same,Visual Weed Control (%) Obs,[2]; 280 g ai/ha,20%
same,Visual Weed Control (%) Obs,[2]; 560 g ai/ha,80%
